Among the data in patent US6362203B1, “4-hydroxy-4-phenylpiperidine derivatives and pharmaceuticals containing the same” (SSP Co., LTD, priority 1999, dated 2002) are melting point and Relative potency values, retold here.

The test system of one series is opioid receptor. The following applies: agonist activity relative to DAMGO (=1.0); guinea pig ileum longitudinal muscle sample. The method, then:
Test 1: Action on the ileum sample excised from a guinea pig
A Hartley male guinea pig of about 500 g in weight was employed. From its ileocecum, 15 to 30 cm of the ileum was excised and a longitudinal muscle sample attached with the Auerbach's plexus was prepared. […] The agonist activity was indicated in terms of relative potency to DAMGO ([D-Ala^2, N-MePhe^4, Gly^5-ol]-enkephalin), a selective μ-opioid agonist.

Molecules are shown by their SMILES.

Consider `CN(C)C(=O)C(CCN1CCC(O)(c2cccc(O)c2)CC1)(c1ccccc1)c1ccccc1`, for which the melting point (commonly the temperature of the solid-liquid transition) was found to be 169 °C. Same read-out and setting: then `CCCCNC(=O)C(CCN1CCC(O)(c2ccccc2OCCO)CC1)(c1ccccc1)c1ccccc1`, with 130 to 131 °C; and `CN(C)C(=O)C(CCN1CCC(O)(c2ccccc2OCCCCCCO)CC1)(c1ccccc1)c1ccccc1.Cl`, with 110 °C.

Consider `CN(C)C(=O)C(CCN1CCC(O)(c2ccc(O)cc2)CC1)(c1ccccc1)c1ccccc1`, for which the melting point was 155 °C. As to `C[C@@H](NC(=O)[C@@H](N)Cc1ccc(O)cc1)C(=O)NCC(=O)N(C)[C@@H](Cc1ccccc1)C(=O)NCCO` [DAMGO, [D-Ala^2, N-MePhe^4, Gly^5-ol]-enkephalin], in the series with opioid receptor, the Relative potency turned out to be 1.0.
